Data reported in patent publication US9481682B2, “Substituted benzamides and substituted pyridinecarboxamides as Btk inhibitors” (MERCK SHARP & DOHME CORP., priority 2013, dated 2016).
Where two headings read alike, the source gives them in different places.

Columns and labels:
HeLa cells = test: [3H]Adenosine uptake functional cellular assay; assay type: cell-based; conditions: accumulation of [3H]adenosine into HeLa cells, read-out: Adenosine uptake inhibition IC50
Protocol: Compounds are also screened in an adenosine uptake functional cellular assay using the protocol described below. The adenosine uptake inhibition assay may be used to identify compounds with the potential for a negative cardiovascular side effect.
Adenosine uptake activity was determined by monitoring the accumulation of tritiated adenosine into HeLa cells (ATCC catalog #CCL-2) using a PMT-based radiometric detection instrument. […] These cells were incubated overnight at 37° C. in a humidified atmosphere with 5% (v/v) CO2. After this time the growth medium was removed and replaced with 40 μL assay medium comprising: Hanks balanced salts solution (HBSS; Thermo Fisher Catalog #SH30268.01)+5% (v/v) FBS. […] Following this incubation, 20 μL of 500 nM [^3H]adenosine (American Radiolabeled Chemicals Inc. […] The amount of radiolabel accumulation was then determined using a Perkin Elmer Topcount NXT microplate reader. In brief, HeLa cells adhere to the bottom of the Cytostar-T plate, uptake of [^3H]adenosine into these cells brings the radiolabel into sufficient proximity to excite the scintillant in the base of the plates. These events are captured by single PMT, time-resolved coincidence counting. IC50 values were determined by 4 parameter robust fit of counts per second values vs. (Log10) compound concentrations.

[1] = target: hBTK (recombinant full-length BTK) (Homo sapiens (Human), UniProt Q06187); test: BTK enzymatic activity, LANCE TR-FRET assay; assay type: biochemical; conditions: 50 pM hBTK, 2 μM biotin-A5-peptide, 25 μM ATP; 60 minute compound & enzyme incubation
Protocol: BTK enzymatic activity was determined with the LANCE (Lanthanide Chelate Excite) TR-FRET (Time-resolved fluorescence resonance energy transfer) assay. […] Phosphorylation reactions were allowed to proceed for 120 minutes. […] After 60 minutes incubation with detection reagents, reaction plates were read on a PerkinElmer EnVision plate reader using standard TR-FRET protocol. […] IC50 values were determined by 4 parameter robust fit of TR-FRET ratio values vs. (Log10) compound concentrations.

[2] = Homo sapiens, compound range 10 μM to 0.032 nM

hBTK (recombinant full-length BTK), sequence (Q06187 whole entry): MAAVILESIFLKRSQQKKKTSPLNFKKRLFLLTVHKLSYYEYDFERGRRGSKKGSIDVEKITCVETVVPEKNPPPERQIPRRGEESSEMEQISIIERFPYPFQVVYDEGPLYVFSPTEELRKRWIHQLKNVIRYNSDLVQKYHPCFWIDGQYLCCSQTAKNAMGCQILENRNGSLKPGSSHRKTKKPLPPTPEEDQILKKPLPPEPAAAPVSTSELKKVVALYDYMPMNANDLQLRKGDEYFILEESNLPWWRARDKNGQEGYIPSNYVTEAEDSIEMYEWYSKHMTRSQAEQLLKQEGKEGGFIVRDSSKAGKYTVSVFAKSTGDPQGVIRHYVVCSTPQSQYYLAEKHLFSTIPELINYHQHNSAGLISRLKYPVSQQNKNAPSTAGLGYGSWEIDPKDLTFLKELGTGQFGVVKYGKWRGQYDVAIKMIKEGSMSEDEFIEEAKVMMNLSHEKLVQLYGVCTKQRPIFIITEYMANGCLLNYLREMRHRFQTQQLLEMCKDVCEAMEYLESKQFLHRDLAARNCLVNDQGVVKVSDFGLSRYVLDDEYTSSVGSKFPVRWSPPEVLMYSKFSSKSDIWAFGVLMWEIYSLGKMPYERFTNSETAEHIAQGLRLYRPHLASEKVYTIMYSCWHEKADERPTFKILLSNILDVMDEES

IC50 (HeLa cells; [2]) | IC50 [1] | IC50 (HeLa cells; compound range 10 μM to […]) | SMILES
1300 nM | 4.6 nM |  | Nc1nccn2c([C@H]3CC[C@H]4C[C@@H](O)C(=O)N4C3)nc(-c3ccc(C(=O)Nc4cc(C(F)(F)F)ccn4)cc3)c12 [Example 74, 4-{8-amino-3-[(2R,6S,8aS)-2-hydroxy-3-oxooctahydroindolizin-6-yl]imidazo[1,5-a]pyrazin-1-yl}-N-[4-(trifluoromethyl)pyridin-2-yl]benzamide]
 | 0.092 nM | 124 nM | CN1CC[C@@H]2CC[C@@H](c3nc(-c4ccc(C(=O)Nc5cc(C(F)(F)F)ccn5)cc4)c4c(N)nccn34)CN2C1=O [Example 83, 4-(8-amino-3-((4aS,7R)-2-methyl-1-oxooctahydro-1H-pyrido[1,2-c]pyrimidin-7-yl)imidazol[1,5-a]pyrazin-1-yl)-N-(4-(trifluoromethyl)pyridin-2-yl)benzamide]
 | 3 nM | 155 nM | CN1CC[C@H]2CC[C@H](c3nc(-c4ccc(C(=O)Nc5cc(C(F)(F)F)ccn5)cc4)c4c(N)nccn34)CN2C1=O [Example 84, 4-(8-amino-3-((4aR,7S)-2-methyl-1-oxooctahydro-1H-pyrido[1,2-c]pyrimidin-7-yl)imidazol[1,5-a]pyrazin-1-yl)-N-(4-(trifluoromethyl)pyridin-2-yl)benzamide]
10000 nM |  |  | Cn1nc(NC(=O)c2ccc(-c3nc([C@@H]4CC[C@H]5CCC(=O)N5C4)n4ccnc(N)c34)c(OC3CNC3)c2)cc1C(F)(F)F [Example 149, 4-{8-amino-3-[(6R,8aS)-3-oxooctahydroindolizin-6-yl]imidazo[1,5-a]pyrazin-1-yl}-3-(azetidin-3-yloxy)-N-[1-methyl-5-(trifluoromethyl)-1H-pyrazol-3-yl]benzamide]
10000 nM |  |  | Nc1nccn2c([C@H]3CC[C@H]4CNCC(=O)N4C3)nc(-c3ccc(C(=O)Nc4cc(C(F)(F)F)ccn4)cc3)c12 [Example 57, 4-{8-amino-3-[(7S,9aS)-4-oxooctahydro-2H-pyrido[1,2-a]pyrazin-7-yl]imidazo[1,5-a]pyrazin-1-yl}-N-[4-(trifluoromethyl)pyridin-2-yl]benzamide]

More lines, now with the values behind:

SMILES | IC50 (HeLa cells; [2]) | IC50 [1] | IC50 (HeLa cells; compound range 10 μM to […])
COc1cc(C(=O)Nc2cc(C(F)(F)F)ccn2)ccc1-c1nc([C@@H]2CC[C@H]3CN(C(=O)c4ccncc4)CC(=O)N3C2)n2ccnc(N)c12 [Example 85, 4-(8-amino-3-((7R,9aS)-2-isonicotinoyl-4-oxooctahydro-1H-pyrido[1,2-a]pyrazin-7-yl)imidazo[1,5-a]pyrazin-1-yl)-3-methoxy-N-(4-(trifluoromethyl)pyridin-2-yl)benzamide] | 2780 nM |  | 
Nc1nccn2c([C@@H]3CC[C@H]4CCC(=O)N4C3)nc(-c3ccc(C(=O)Nc4cc(C(F)(F)F)ccn4)cc3OCCO)c12 [Example 200, 4-{8-amino-3-[(6R,8aS)-3-oxooctahydroindolizin-6-yl]imidazo[1,5-a]pyrazin-1-yl}-3-(2-hydroxyethoxy)-N-[4-(trifluoromethyl)pyridin-2-yl]benzamide] | 5450 nM |  | 
NC(=O)c1cc(C(=O)Nc2cc(C(F)(F)F)ccn2)ccc1-c1nc([C@@H]2CC[C@H]3CCC(=O)N3C2)n2ccnc(N)c12 [Example 124, 4-{8-amino-3-[(6R,8aS)-3-oxooctahydroindolizin-6-yl]imidazo[1,5-a]pyrazin-1-yl}-N~1~-[4-(trifluoromethyl)pyridin-2-yl]benzene-1,3-dicarboxamide] | 10000 nM |  | 
Nc1nccn2c([C@@H]3CC[C@@H]4C[C@H](O)C(=O)N4C3)nc(-c3ccc(C(=O)Nc4cc(C(F)(F)F)ccn4)cc3)c12 [Example 72, 4-{8-amino-3-[(2S,6R,8aR)-2-hydroxy-3-oxooctahydroindolizin-6-yl]imidazo[1,5-a]pyrazin-1-yl}-N-[4-(trifluoromethyl)pyridin-2-yl]benzamide] | 730 nM | 0.45 nM | 
COCCOc1cc(C(=O)Nc2cccc(C(F)(F)F)c2)ccc1-c1nc([C@@H]2CC[C@H]3CCC(=O)N3C2)n2ccnc(N)c12 [Example 199, 4-(8-amino-3-((6R,8aS)-3-oxooctahydroindolizin-6-yl)imidazo[1,5-a]pyrazin-1-yl)-3-(2-methoxyethoxy)-N-(3-(trifluoromethyl)phenyl)benzamide] | 7090 nM | 1.9 nM | 
